This experiment concerns VEEV Trinidad donkey virus titer reduction, cell culture. Put plainly: VEEV Trinidad donkey titer reduction, cell-based, Trinidad donkey strain (AID 651883). The note with it: stronger effect = lower value.

Structures are written as SMILES.

Consider `CCN1CCN(Cc2nc3ccc([N+](=O)[O-])cc3c(=O)n2-c2ccccc2F)CC1`, for which the log virus titer change (at 5 µM) is -5.84; the log virus titer change (titer change, at 0.5 µM) is -0.518; the log virus titer change (titer change, at 1 µM) was -2.39; the log virus titer change (titer change, at 2 µM) is below -5.95.
In the case of `COc1ccc(NC(=O)c2cc([N+](=O)[O-])ccc2N=C2CN(C)CCN2C)cc1`, the log virus titer change (at 5 µM) is below -5.95; the log virus titer change (titer change, at 0.5 µM) was below -5.95; the log virus titer change (titer change, at 1 µM) is below -5.95; the log virus titer change (titer change, at 2 µM) was below -5.95.
Turning to `CN1CCN(C)C(=Nc2ccc([N+](=O)[O-])cc2C(=O)Nc2ccccc2)C1`, the log virus titer change is, setting by setting: (at 5 µM) below -5.95; (titer change, at 0.5 µM) below -5.95; (titer change, at 1 µM) below -5.95; (titer change, at 2 µM) below -5.95.
Turning to `CCN1CCN(C)CC1=Nc1ccc([N+](=O)[O-])cc1C(=O)Nc1ccccc1`, the log virus titer change is below -5.95 (at 5 µM); below -5.95 (titer change, at 0.5 µM); below -5.95 (titer change, at 1 µM); below -5.95 (titer change, at 2 µM).

Values taken from PubChem BioAssay AID651883 (Southern Research Specialized Biocontainment Screening …, 2012).
